The structures appear in SMILES notation. Values joined by “and” are separate entries in the source; they are usually repeats but may differ in a detail not shown here. Identical values can stand only once. Active and inactive are the calls of the source. No cut-off for these calls is given here.

Data set [1] in a line: Dissociation constant, pKa at 2 mg by spectrophotometry.
In data set [2] the target is T1, Purine nucleoside phosphorylase (Homo sapiens) (UniProt P00491).
T1 sequence (whole entry): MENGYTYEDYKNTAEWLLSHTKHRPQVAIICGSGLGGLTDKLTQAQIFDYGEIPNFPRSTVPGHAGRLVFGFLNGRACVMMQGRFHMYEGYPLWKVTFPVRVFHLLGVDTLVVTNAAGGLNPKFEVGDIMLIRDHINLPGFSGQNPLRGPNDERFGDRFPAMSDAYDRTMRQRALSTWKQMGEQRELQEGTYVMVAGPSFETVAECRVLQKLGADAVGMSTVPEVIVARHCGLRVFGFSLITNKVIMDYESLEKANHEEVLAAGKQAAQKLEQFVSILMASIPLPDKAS
To be noted: 4.99 to 18.71 uM.

The target in data set [3] is T2, Purine nucleoside phosphorylase (Bos taurus) (UniProt P55859).
T2 sequence (whole entry): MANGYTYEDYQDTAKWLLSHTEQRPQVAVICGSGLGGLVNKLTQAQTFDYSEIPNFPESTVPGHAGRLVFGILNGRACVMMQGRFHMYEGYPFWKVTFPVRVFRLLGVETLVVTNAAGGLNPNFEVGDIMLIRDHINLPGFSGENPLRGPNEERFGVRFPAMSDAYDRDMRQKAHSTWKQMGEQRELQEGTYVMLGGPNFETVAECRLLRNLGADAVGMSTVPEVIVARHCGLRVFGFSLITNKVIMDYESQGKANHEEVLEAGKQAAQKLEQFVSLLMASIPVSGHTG
To be noted: Spleen.

Data set [4] addresses T3, Purine nucleoside phosphorylase (Homo sapiens, UniProt P00491).
T3 sequence (P00491 whole entry): T1 sequence (whole entry)
Description: Inhibition of human erythrocyte PNP assessed as inhibition of 25 uM 7-methylguanosine phosphorolysis by spectrophotometry in presence of 1 mM inorganic phosphate.

Data set [5] addresses T4, Purine nucleoside phosphorylase (Bos taurus, UniProt P55859).
T4 sequence (P55859 whole entry): T2 sequence (whole entry)
Description: Inhibition of calf spleen PNP assessed as inhibition of 7-methylguanosine phosphorolysis after 50 mins by spectrophotometry in presence of 1 mM inorganic phosphate. To be noted: read-out: Ki(app).

Data set [6] addresses T3, Purine nucleoside phosphorylase. Description: Inhibition of human erythrocyte PNP assessed as inhibition of 7-methylguanosine phosphorolysis after 50 mins by spectrophotometry in presence of 1 mM inorganic phosphate. As to conditions: read-out: Ki(app).
Data set [7] deals with T4, Purine nucleoside phosphorylase.
Data set [8] has as its target T2, Purine nucleoside phosphorylase (Bos taurus). To be noted: Spleen. This is another data set of the same source.

In data set [1], `Cn1c(N)nc2ccn(C)c2c1=O` yielded a pKa of 10.6.

As for `Nc1nc2c(CCCCC(F)(F)P(=O)(O)O)c[nH]c2c(=O)[nH]1`, in data set [2], the inhibition result was “Active”. Moreover, the Kieq in data set [3] was determined as 0.085 nM.

Regarding `CCOP(=O)(OCC)C(F)(F)CCCc1c[nH]c2c(=O)[nH]c(N)nc12`, in data set [4], the IC50 stood at 170 nM.

As to `Cn1c(N)nc2cc[nH]c2c1=O`, in data set [1], the pKa came to 5.1.

Regarding `Nc1nc(O)c2ncn(CCCCC(F)(F)P(=O)(O)O)c2n1`, in data set [3], the Kieq is 0.72 nM.

Take `Nc1nc2c(CCCCCCCC(F)(F)P(=O)(O)O)c[nH]c2c(=O)[nH]1`: the Ki in data set [5] was 6.1 nM and 0.94 nM; in data set [6], 5.6 nM.

In turn, `O=c1[nH]cnc2c([C@@H]3N[C@H](CO)[C@@H](O)[C@H]3O)c[nH]c12` [FORODESINE] showed a Ki in data set [7] of 41 nM. The compound further gave a Kieq in data set [8] of 0.023 nM.

A word on the pKa: it is the negative logarithm of the acid dissociation constant. A higher pKa goes with a weaker acid or stronger base. A word on the IC50: it is the concentration needed to halve the response being measured.

These data come from ChEMBL document CHEMBL1157648, “Structural-based design and synthesis of novel 9-deazaguanine derivatives having a phosphate mimic as multi-substrate analogue inhibitors for mammalian PNPs” (Bioorg Med Chem, 2010).
